The record followed here is PubChem BioAssay (NCI).

Holding throughout (experiment): NCI anticancer screen, dose series, 48 h
The subject of assay [1] is SK-MEL-28 melanoma.
Assay [2] deals with SNB-75 CNS.
Assay [3] concerns EKVX NSCLC.
Assay [4] deals with SNB-19 CNS.
In assay [5] the test system is U251 CNS.
Assay [6] deals with 786-0 renal.
Assay [7] has as its system MALME-3M melanoma.
The test system of assay [8] is DU-145 prostate.
For assay [9], the system named is COLO 205 colon.
Assay [10] concerns OVCAR-8 ovarian.

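Grown in 96-well plates, cells were treated for 48 hours with each compound at five concentrations. Insufficient inhibition: endpoint recorded as highest concentration tested. At the GI50, growth is halved. TGI denotes the concentration required for complete inhibition of growth.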 Where only a bound is given, the exact number is not on record here.

On to `C[C@@H]1Cc2c(ccc3[nH]ncc23)[C@@H](c2ccc(NC3CN(CCCF)C3)cn2)N1CC(F)(F)F`, for which the GI50 was 16.5 µM in assay [1]; 12.7 µM in assay [2]; 28.9 µM in assay [3]; 28.3 µM in assay [4]; 15.8 µM in assay [5]; 14.4 µM in assay [6]. For the same compound, the GI50 in assay [7] is 12.4 µM; in assay [8] it was 35.2 µM; in [9] it was 16.5 µM; in [10], 23.5 µM. Besides, the TGI in [1] was 32.1 µM; in [2] it was more than 100 µM; in assay [3], more than 100 µM; in [4], more than 100 µM; in assay [5], 36.7 µM; in assay [6], 28.4 µM. The TGI in [7] is 26.6 µM; in assay [8], more than 100 µM; in assay [9], 35.5 µM; in assay [10], 69.8 µM.

As for `CN(C)Cc1cc(C(C)(C)C)cc(CN(C)C)c1O`, the TGI in assay [1], in assay [2], in assay [3], in [4], in [5] and in assay [6] was more than 100 µM throughout. Besides, the TGI in [7], in [8], in assay [9] and in assay [10] was more than 100 µM in each case.

As to `COc1ccc(F)cc1-c1ccnc2[nH]c(C3=CCN(C4CCC(CC(=O)O)CC4)CC3)cc12` (stereo not given), the GI50 in assay [1] is 0.152 µM; in assay [2], 0.13 µM; in assay [3], 0.289 µM; in assay [4], 0.152 µM; in assay [5] it was 0.137 µM; in assay [6], 0.219 µM. For the same compound, the GI50 is 0.206 µM in [7], 0.346 µM in assay [8], 0.0747 µM in assay [9] and 0.288 µM in [10]. Also, the TGI is 0.989 µM in [1]; 0.381 µM in [2]; 40.9 µM in assay [3]; more than 100 µM in [4]; more than 100 µM in assay [5]; 37.3 µM in assay [6]. In addition, the TGI in assay [7] is 0.563 µM; in assay [8], more than 100 µM; in assay [9] it was 0.561 µM; in [10], more than 100 µM.

Take `CSc1nc2ccc(C)cc2cc1/C=C1/C=C(c2ccccc2)NC1=O`: the GI50 in [1] is 23.1 µM; in assay [2], 2.81 µM; in assay [3], 13.1 µM; in assay [4] it was 4.6 µM; in [5], 0.602 µM; in [6], 2 µM. The GI50 is 3.08 µM in [7], 6.72 µM in assay [8], 5.9 µM in [9] and 3.6 µM in assay [10]. For the same compound, the TGI was more than 100 µM in assay [1]; 14.8 µM in assay [2]; more than 100 µM in assay [3]; 33.5 µM in assay [4]; 3.68 µM in assay [5]; 5.89 µM in assay [6]. Besides, the TGI was 25.9 µM in assay [7], 96.1 µM in assay [8], more than 100 µM in assay [9] and 23.2 µM in [10].

As for `COC(=O)c1cc(C)[nH]c2c(C)cc3nc4ccccc4c3c12`, the GI50 in assay [1] was 14.6 µM; in assay [2] it was 8.5 µM; in assay [3], 6.5 µM; in assay [4], 12.7 µM; in assay [5], 10.7 µM; in assay [6], 7.1 µM. Further, the GI50 is 14.7 µM in assay [7], 11.8 µM in assay [8], 12.7 µM in [9] and 6.35 µM in assay [10]. Besides, the TGI in assay [1] was 28.3 µM; in assay [2], 21 µM; in [3], 20.5 µM; in assay [4] it was 29.5 µM; in [5], 23.9 µM; in [6] it was 21.4 µM. Moreover, the TGI in assay [7] is 28.5 µM; in [8], 24.7 µM; in [9], 25.8 µM; in assay [10], 19 µM.

Consider `C=C1C(=O)OC2(C)CCC1CC1OC1(C)CCC=C(C)CCC2O` (stereo not given), for which the TGI in [1], in assay [2], in [3], in [4], in assay [5] and in [6] was more than 100 µM each time. Further, the TGI in assay [7], in assay [8], in assay [9] and in [10] was more than 100 µM each time.

For `COc1cc2c(=O)n(CC3CCCCC3)c3c4cc[nH]c4ncc3c2cc1OC`, the GI50 in assay [1] was 7.25 µM; in assay [2], 0.209 µM; in assay [3], 5.52 µM; in assay [4] it was 5.16 µM; in [5] it was 4.85 µM; in assay [6] it was 1.31 µM. Besides, the GI50 in [7] was 6.33 µM; in [8], 4.96 µM; in assay [9] it was 1.67 µM; in assay [10], 5 µM. For the same compound, the TGI is 31.2 µM in assay [1]; 1.9 µM in assay [2]; more than 50 µM in [3]; 19.5 µM in assay [4]; 15.7 µM in [5]; 9.25 µM in assay [6]. The TGI was 26.3 µM in assay [7], 19.6 µM in assay [8], 11.7 µM in assay [9] and more than 50 µM in assay [10].

Take `CCCCCCCCc1cc(O)ccc1O`: the GI50 in assay [1] was 17.4 µM; in [2], 13.3 µM; in assay [3] it was 18.1 µM; in [4], 18.5 µM; in assay [5], 18.5 µM; in assay [6], 17.5 µM. In addition, the GI50 in assay [7] is 16.6 µM; in [8], 21.9 µM; in assay [9], 30.1 µM; in assay [10] it was 29.2 µM. Also, the TGI in [1] was 33.4 µM; in assay [2], 47.3 µM; in [3], 61.1 µM; in assay [4] it was 39.9 µM; in [5], 40.6 µM; in assay [6], 34.5 µM. For the same compound, the TGI in assay [7] was 34.4 µM; in [8], 52.5 µM; in assay [9], 68.7 µM; in [10], more than 100 µM.
